Experimental data: patent EP2396329B1, “COMPOUNDS FOR THE TREATMENT OF HEPATITIS C” (priority 2009, dated 2010)

Biological target: T1, HCV NS5B (Hepatitis C virus genotype 1b, UniProt Q9WMX2)
T1 construct: The protein was expressed with an 18 amino acid C-terminal truncation to enhance the solubility; made in house; host or cells: E. coli BL21(DE3)
Assay: HCV NS5B RdRp enzyme assay (standard or modified)
Assay type: biochemical
Conditions: HCV NS5B RdRp enzyme, genotype 1b; read-out: IC50
Protocol: HCV NS5B RdRp cloning, expression, and purification. The cDNA encoding the NS5B protein of HCV, genotype 1b, was cloned into the pET21a expression vector. The protein was expressed with an 18 amino acid C-terminal truncation to enhance the solubility. The E. coli competent cell line BL21(DE3) was used for expression of the protein. Cultures were grown at 37 °C for ~ 4 hours until the cultures reached an optical density of 2.0 at 600 nm. The cultures were cooled to 20 °C and induced with I mM IPTG. Fresh ampicillin was added to a final concentration of 50 µg/ml and the cells were grown overnight at 20 °C.
Cell pellets (3L) were lysed for purification to yield 15-24 mgs of purified NS5B. The lysis buffer consisted of 20 mM Tris-HCl, pH 7.4, 500 mM NaCl, 0.5% triton X-100, 1 mM DTT, 1mM EDTA, 20% glycerol, 0.5 mg/ml lysozyme, 10 mM MgCl2, 15 ug/ml deoxyribonuclease I, and Complete TM protease inhibitor tablets (Roche). After addition of the lysis buffer, frozen cell pellets were resuspended using a tissue homogenizer. To reduce the viscosity of the sample, aliquots of the lysate were sonicated on ice using a microtip attached to a Branson sonicator. The sonicated lysate was centrifuged at 100,000 x g for 1hr at 4 °C and filtered through a 0.2 µm filter unit (Corning).
The protein was purified using three sequential chromatography steps: Heparin sepharose CL-6B, polyU sepharose 4B, and Hitrap SP sepharose (Pharmacia). The chromatography buffers were identical to the lysis buffer but contained no lysozyme, deoxyribonuclease I, MgCl2 or protease inhibitor and the NaCl concentration of the buffer was adjusted according to the requirements for charging the protein onto the column. Each column was eluted with a NaCl gradient which varied in length from 5-50 column volumes depending on the column type. After the final chromatography step, the resulting purity of the enzyme is >90% based on SDS-PAGE analysis. The enzyme was aliquoted and stored at -80 °C.
Standard HCV NS5B RdRp enzyme assay. HCV RdRp genotype 1b assays were run in a final volume of 60 µl in 96 well plates (Costar 3912). The assay buffer is composed of 20 mM Hepes, pH 7.5, 2.5 mM KCI, 2.5 mM MgCl2, 1 mM DTT, 1.6 U RNAse inhibitor (Promega N2515), 0.1 mg/ml BSA (Promega R3961), and 2 % glycerol. All compounds were serially diluted (3-fold) in DMSO and diluted further in water such that the final concentration of DMSO in the assay was 2%. HCV RdRp genotype Ib enzyme was used at a final concentration of 28 nM. A polyA template was used at.6 nM, and a biotinylated oligo-dT12 primer was used at 180 nM final concentration. Template was obtained commercially (Amersham 27-4110). Biotinylated primer was prepared by Sigma Genosys. 3H-UTP was used at 0.6 µCi (0.29 µM total UTP). Reactions were initiated by the addition of enzyme, incubated at 30 °C for 60 min, and stopped by adding 25 µl of 50 mM EDTA containing SPA beads (4 µg/µl, Amersham RPNQ 0007). Plates were read on a Packard Top Count NXT after > 1hr incubation at room temperature.
Modified HCV NS5B RdRp enzyme assay. A modified enzyme assay was performed essentially as described for the standard enzyme assay except for the following: The biotinylated oligo dT12 primer was precaptured on streptavidin-coated SPA beads by mixing primer and beads in assay buffer and incubating at room temperature for one hour. Unbound primer was removed after centrifugation. The primer-bound beads were resuspended in 20 mM Hepes buffer, pH 7.5 and used in the assay at final concentrations of 20 nM primer and 0.67 µg/µl beads. Order of addition in the assay: enzyme (14 nM) was added to diluted compound followed by the addition of a mixture of template (0.2 nM), 3H-UTP (0.6 µCi, 0.29 µM), and primer-bound beads, to initiate the reaction; concentrations given are final. Reactions were allowed to proceed for 4 hours at 30° C.
IC50 values for compounds were determined using seven different [I]. […]

T1 sequence (Q9WMX2 2420-2992): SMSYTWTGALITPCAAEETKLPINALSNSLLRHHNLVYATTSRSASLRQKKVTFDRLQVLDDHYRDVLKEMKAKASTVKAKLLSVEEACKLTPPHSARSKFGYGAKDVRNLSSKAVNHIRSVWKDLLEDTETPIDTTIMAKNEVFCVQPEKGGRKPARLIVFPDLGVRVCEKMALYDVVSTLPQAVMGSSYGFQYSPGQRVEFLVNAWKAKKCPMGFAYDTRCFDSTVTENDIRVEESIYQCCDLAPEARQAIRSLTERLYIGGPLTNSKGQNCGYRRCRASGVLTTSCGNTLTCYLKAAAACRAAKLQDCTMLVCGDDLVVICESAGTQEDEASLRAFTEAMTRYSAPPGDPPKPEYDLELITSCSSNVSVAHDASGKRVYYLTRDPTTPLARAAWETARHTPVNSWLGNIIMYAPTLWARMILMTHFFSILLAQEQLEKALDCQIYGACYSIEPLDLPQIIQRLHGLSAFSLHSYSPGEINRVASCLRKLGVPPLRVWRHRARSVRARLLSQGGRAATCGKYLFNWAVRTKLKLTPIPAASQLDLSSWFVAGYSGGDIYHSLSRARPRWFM

Structure (SMILES) | IC50 [nM]
COc1ccc2c(c1)C=C(c1nn(C(C)C)c(C)c1C(=O)N1C[C@@H](C)N(C)[C@@H](C)C1)Cn1c-2c(C2CCCCC2)c2ccc(C(=O)NS(=O)(=O)C(C)C)cc21 | 1 to 500
CCN1CC2CC1CN2C(=O)c1c(C)nn(CC)c1C1=Cc2cc(OC)ccc2-c2c(C3CCCCC3)c3ccc(C(=O)NS(=O)(=O)C(C)C)cc3n2C1 (centres unmarked) | 1 to 500
CCn1nc(C)c(C(=O)N2CCOCC2)c1C1=Cc2cc(OC)ccc2-c2c(C3CCCCC3)c3ccc(C(=O)NS(=O)(=O)C(C)C)cc3n2C1 | 1 to 500
COc1ccc2c(c1)C=C(c1c(C(=O)N3C[C@@H](C)O[C@@H](C)C3)nnn1C(C)C)Cn1c-2c(C2CCCCC2)c2ccc(C(=O)NS(=O)(=O)C(C)C)cc21 | 1 to 500
COc1ccc2c(c1)C=C(c1c(C(=O)N3C[C@@H](C)N(C)[C@@H](C)C3)nnn1C(C)C)Cn1c-2c(C2CCCCC2)c2ccc(C(=O)NS(=O)(=O)C(C)C)cc21 | 1 to 500
COc1ccc2c(c1)C=C(c1c(C(=O)N3C[C@@H](C)O[C@@H](C)C3)ncn1C(C)C)Cn1c-2c(C2CCCCC2)c2ccc(C(=O)NS(=O)(=O)C(C)C)cc21 | 1 to 500
COc1ccc2c(c1)C=C(c1c(C(=O)N3CCOCC3)ncn1C(C)C)Cn1c-2c(C2CCCCC2)c2ccc(C(=O)NS(=O)(=O)C(C)C)cc21 | 1 to 500
COc1ccc2c(c1)C=C(c1c(C(=O)N3C[C@@H](C)N(C)[C@@H](C)C3)ncn1C(C)C)Cn1c-2c(C2CCCCC2)c2ccc(C(=O)NS(=O)(=O)C(C)C)cc21 | 1 to 500
COc1ccc2c(c1)C=C(c1ncn(C(C)C)c1C(=O)N1C[C@@H](C)O[C@@H](C)C1)Cn1c-2c(C2CCCCC2)c2ccc(C(=O)NS(=O)(=O)N(C)C)cc21 | 1 to 500
COc1ccc2c(c1)C=C(c1ncn(C(C)C)c1C(=O)N1CCOCC1)Cn1c-2c(C2CCCCC2)c2ccc(C(=O)NS(=O)(=O)N(C)C)cc21 | 1 to 500
COc1ccc2c(c1)C=C(c1c(C(=O)N3C[C@@H](C)N(C)[C@@H](C)C3)nnn1C(C)C)Cn1c-2c(C2CCCCC2)c2ccc(C(=O)NS(=O)(=O)N(C)C)cc21 | 1 to 500
COc1ccc2c(c1)C=C(c1c(C(=O)N3C[C@@H](C)O[C@@H](C)C3)nnn1C(C)C)Cn1c-2c(C2CCCCC2)c2ccc(C(=O)NS(=O)(=O)N(C)C)cc21 | 1 to 500
COc1ccc2c(c1)C=C(c1c(C(=O)N3CCOCC3)nnn1C(C)C)Cn1c-2c(C2CCCCC2)c2ccc(C(=O)NS(=O)(=O)N(C)C)cc21 | 1 to 500

System: HCV replicon
Assay: HCV replicon assay (FRET or luciferase readout)
Assay type: cell-based
Conditions: Hepatitis C virus
Description: FRET Assay Preparation. To perform the HCV FRET screening assay, 96-well cell culture plates were used. The FRET peptide (Anaspec, Inc.) (Taliani et al., Anal. Biochem. 1996, 240, 60-67) contains a fluorescence donor, EDANS, near one end of the peptide and an acceptor, DABCYL, near the other end. The fluorescence of the peptide is quenched by […] resonance energy transfer (RET) between the donor and the acceptor, but as the NS3 protease cleaves the peptide the products are released from RET quenching and the fluorescence of the donor becomes apparent. The assay reagent was made as follows: 5X cell Luciferase cell culture lysis reagent from Promega (#E153A) diluted to 1X with dH2O, NaCl added to 150 mM final, the FRET peptide diluted to 20 µM final from a 2 mM stock.
To prepare plates, HCV replicon cells, with or without a Renilla luciferase reporter gene, were trypsinized and placed into each well of a 96-well plate with titrated test compounds added in columns 3 through 12; columns 1 and 2 contained a control compound (HCV protease inhibitor), and the bottom row contained cells without compound. The plates were then placed in a CO2 incubator at 37 °C.
Assays. Subsequent to addition of the test compounds described above (FRET Assay Preparation), at various times the plate was removed and Alamar blue solution (Trek Diagnostics, #00-100) was added per well as a measure of cellular toxicity. After reading in a Cytoflour 4000 instrument (PE Biosystems), plates were rinsed with PBS and then used for FRET assay by the addition of 30 ul of the FRET peptide assay reagent described above (FRET Assay Preparation) per well. The plate was then placed into the Cytoflour 4000 instrument which had been set to 340 excite/490 emission, automatic mode for 20 cycles and the plate read in a kinetic mode. Typically, the signal to noise using an endpoint analysis after the reads was at least three-fold. Alternatively, after Alamar blue reading, plates were rinsed with PBS, 50 ul of DMEM (high glucose) without phenol red was added and plates were then used for luciferase assay using the Promega Dual-Glo Luciferase Assay System.
Compound analysis was determined by quantification of the relative HCV replicon inhibition and the relative cytotoxicity values. To calculate cytoxicity values, the average Alamar Blue fluorescence signals from the control wells were set as 100% non-toxic. The individual signals in each of the compound test wells were then divided by the average control signal and multiplied by 100% to determine […]. To calculate the HCV replicon inhibition values, an average background value was obtained from the two wells containing the highest amount of HCV protease inhibitor at the end of the assay period. These numbers were similar to those obtained from naïve Huh-7 cells.
The background numbers were then subtracted from the average signal obtained from the control wells and this number was used as 100% activity. The individual signals in each of the compound test wells were then divided by the averaged control values after background subtraction and multiplied by 100% to determine percent activity. EC50 values for a protease inhibitor titration were calculated as the concentration which caused a 50% reduction in FRET or luciferase activity. The two numbers generated for the compound plate, percent cytoxicity and percent activity were used to determine compounds of interest for further analysis.

Structure (SMILES) | EC50 [nM]
CCN1CC2CC1CN2C(=O)c1c(C)nn(CC)c1C1=Cc2cc(OC)ccc2-c2c(C3CCCCC3)c3ccc(C(=O)NS(=O)(=O)C(C)C)cc3n2C1 (centres unmarked) | 1 to 500

Same assay, conditions: Hepatitis C virus; HCV replicon cells; FRET or luciferase activity; read-out: EC50

Structure (SMILES) | EC50 [nM]
COc1ccc2c(c1)C=C(c1nn(C(C)C)c(C)c1C(=O)N1C[C@@H](C)N(C)[C@@H](C)C1)Cn1c-2c(C2CCCCC2)c2ccc(C(=O)NS(=O)(=O)C(C)C)cc21 | 1 to 500
CCn1nc(C)c(C(=O)N2CCOCC2)c1C1=Cc2cc(OC)ccc2-c2c(C3CCCCC3)c3ccc(C(=O)NS(=O)(=O)C(C)C)cc3n2C1 | 1 to 500
COc1ccc2c(c1)C=C(c1c(C(=O)N3C[C@@H](C)O[C@@H](C)C3)nnn1C(C)C)Cn1c-2c(C2CCCCC2)c2ccc(C(=O)NS(=O)(=O)C(C)C)cc21 | 1 to 500
COc1ccc2c(c1)C=C(c1c(C(=O)N3C[C@@H](C)N(C)[C@@H](C)C3)nnn1C(C)C)Cn1c-2c(C2CCCCC2)c2ccc(C(=O)NS(=O)(=O)C(C)C)cc21 | 1 to 500
COc1ccc2c(c1)C=C(c1c(C(=O)N3C[C@@H](C)O[C@@H](C)C3)ncn1C(C)C)Cn1c-2c(C2CCCCC2)c2ccc(C(=O)NS(=O)(=O)C(C)C)cc21 | 1 to 500
COc1ccc2c(c1)C=C(c1c(C(=O)N3CCOCC3)ncn1C(C)C)Cn1c-2c(C2CCCCC2)c2ccc(C(=O)NS(=O)(=O)C(C)C)cc21 | 1 to 500
COc1ccc2c(c1)C=C(c1c(C(=O)N3C[C@@H](C)N(C)[C@@H](C)C3)ncn1C(C)C)Cn1c-2c(C2CCCCC2)c2ccc(C(=O)NS(=O)(=O)C(C)C)cc21 | 1 to 500
COc1ccc2c(c1)C=C(c1ncn(C(C)C)c1C(=O)N1C[C@@H](C)O[C@@H](C)C1)Cn1c-2c(C2CCCCC2)c2ccc(C(=O)NS(=O)(=O)N(C)C)cc21 | 1 to 500
COc1ccc2c(c1)C=C(c1ncn(C(C)C)c1C(=O)N1CCOCC1)Cn1c-2c(C2CCCCC2)c2ccc(C(=O)NS(=O)(=O)N(C)C)cc21 | 1 to 500
COc1ccc2c(c1)C=C(c1c(C(=O)N3C[C@@H](C)N(C)[C@@H](C)C3)nnn1C(C)C)Cn1c-2c(C2CCCCC2)c2ccc(C(=O)NS(=O)(=O)N(C)C)cc21 | 1 to 500
COc1ccc2c(c1)C=C(c1c(C(=O)N3C[C@@H](C)O[C@@H](C)C3)nnn1C(C)C)Cn1c-2c(C2CCCCC2)c2ccc(C(=O)NS(=O)(=O)N(C)C)cc21 | 1 to 500
COc1ccc2c(c1)C=C(c1c(C(=O)N3CCOCC3)nnn1C(C)C)Cn1c-2c(C2CCCCC2)c2ccc(C(=O)NS(=O)(=O)N(C)C)cc21 | 1 to 500
